In article PMC11971462, “Generation and validation of a novel multitarget small molecule in glioblastoma” (Cell Death & Disease, 2025):

Test system: GNS166 cells

Q: Which results are given for C#CCN(Cc1cc2cc(OCCCN3CCCCC3)ccc2n1S(=O)(=O)c1ccccc1)C(=O)CCCCCCC(=O)NO [DDI]?
A: PCBP3 log2FoldChange: 5.457; PCDH15 log2FoldChange: 3.424; PCDH19 log2FoldChange: 2.11; PCDHA13 log2FoldChange: 3.483; PCOLCE2 log2FoldChange: 2.03; PCP4L1 log2FoldChange: 4.897; PCSK1 log2FoldChange: 3.118; PDE2A log2FoldChange: 2.038; PDE3A log2FoldChange: 2.332; PDE4C log2FoldChange: 2.296; PDK4 log2FoldChange: 2.588; PDX1 log2FoldChange: 3.554; PLA2G4A log2FoldChange: 2.126; PLCXD2 log2FoldChange: 2.533; PLEK2 log2FoldChange: 2.459; PLEKHA6 log2FoldChange: 2.086; PLP1 log2FoldChange: 2.506; PPM1N log2FoldChange: 2.335; PPP1R1B log2FoldChange: 4.39; PPP1R16B log2FoldChange: 3.376; PPP4R4 log2FoldChange: 3.111; PRR29 log2FoldChange: 3.599; PRRX2 log2FoldChange: 2.314; PRSS3 log2FoldChange: 3.932; PSD2 log2FoldChange: 3.562; PSG1 log2FoldChange: 5.24; PSG4 log2FoldChange: 4.564; PSG5 log2FoldChange: 4.838; PSG9 log2FoldChange: 3.658; PTGS1 log2FoldChange: 4.0843; PTPN5 log2FoldChange: 4.236; PTPRO log2FoldChange: 3.032; PTPRQ log2FoldChange: 3.237; QPRT log2FoldChange: 2.003; RAB39A log2FoldChange: 2.508; RADX log2FoldChange: 2.3792; RAET1G log2FoldChange: 2.196; RAP1GAP log2FoldChange: 2.521; RARB log2FoldChange: 2.002; RASD2 log2FoldChange: 3.718; RASIP1 log2FoldChange: 2.128; RDH12 log2FoldChange: 3.657; REM1 log2FoldChange: 2.662; RFPL4A log2FoldChange: 5.081; RFTN2 log2FoldChange: 4.233; RGS9 log2FoldChange: 5.175; RIMBP2 log2FoldChange: 6.452; RIMS4 log2FoldChange: 5.004; RNF165 log2FoldChange: 3.79; RUNDC3A log2FoldChange: 4.619; S100B log2FoldChange: 3.045; SAMD11 log2FoldChange: 4.391; SCEL log2FoldChange: 2.003; SCIN log2FoldChange: 3.412; SCN3A log2FoldChange: 2.697; SCN4B log2FoldChange: 2.757; SCN5A log2FoldChange: 2.371; SCN9A log2FoldChange: 2.594; SCUBE1 log2FoldChange: 7.641; SEMA3F log2FoldChange: 2.777; SEMA5A log2FoldChange: 2.383; SERPING1 log2FoldChange: 4.327; SERPINI1 log2FoldChange: 3.966; SERTM1 log2FoldChange: 2.165; SGIP1 log2FoldChange: 2.3607; SH2D3C log2FoldChange: 5.237; SHANK1 log2FoldChange: 6.717; SHF log2FoldChange: 2.222; SHISA7 log2FoldChange: 4.7; SLC4A5 log2FoldChange: 2.594; SLC6A17 log2FoldChange: 2.657; SLC7A2 log2FoldChange: 3.19; SLC7A10 log2FoldChange: 6.012; SLC8A2 log2FoldChange: 4.387; SLC9A9 log2FoldChange: 2.124; SLC16A12 log2FoldChange: 2.212; SLC22A31 log2FoldChange: 5.211; SLC25A27 log2FoldChange: 5.956; SLC44A3 log2FoldChange: 2.701; SLC45A1 log2FoldChange: 2.018; SLIT2 log2FoldChange: 2.219; SLITRK3 log2FoldChange: 2.145; SMPDL3B log2FoldChange: 3.134; SNCB log2FoldChange: 4.848; SNX22 log2FoldChange: 2.0694; SNX32 log2FoldChange: 2.323; SOBP log2FoldChange: 2.326; SPANXC log2FoldChange: 2.711; SPINK2 log2FoldChange: 3.038; SPNS2 log2FoldChange: 3.326; SSTR2 log2FoldChange: 2.236; ST3GAL5 log2FoldChange: 2.386; ST6GALNAC3 log2FoldChange: 2.853; STAT4 log2FoldChange: 3.605; STC1 log2FoldChange: 3.854; STMN3 log2FoldChange: 2.874; STUM log2FoldChange: 6.45; STX1B log2FoldChange: 2.758; STXBP5L log2FoldChange: 2.17; SYNPO2 log2FoldChange: 2.428; SYP log2FoldChange: 4.307; SYT2 log2FoldChange: 5.115; SYT5 log2FoldChange: 6.667; SYT13 log2FoldChange: 2.882; SYTL3 log2FoldChange: 2.536; TAGLN3 log2FoldChange: 3.305; TBC1D8B log2FoldChange: 2.1255; TCEAL5 log2FoldChange: 4.062; TCIM log2FoldChange: 3.258; TEC log2FoldChange: 4.937; TEKT3 log2FoldChange: 2.698; TESC log2FoldChange: 5.269; TEX19 log2FoldChange: 3.325; THSD7B log2FoldChange: 3.117; TJP3 log2FoldChange: 5.915; TLCD3B log2FoldChange: 2.485; TLR9 log2FoldChange: 2.809; TLX2 log2FoldChange: 2.462; TMEM47 log2FoldChange: 2.003; TMEM74B log2FoldChange: 3.647; TMEM74 log2FoldChange: 4.084; TMEM92 log2FoldChange: 3.463; TMEM139 log2FoldChange: 3.161; TMEM145 log2FoldChange: 3.464; TMEM151B log2FoldChange: 3.192
